How the values were obtained:
GRPR = target: T1, GRPR (Homo sapiens, UniProt P30550); test: In vitro competitive binding assay against [^125I]I-Tyr^4-BBN; IC50 determination; conditions: PC-3 cells
T1 construct: investigated using GRPR-expressing PC-3 cells; endogenous in cells; host or cells: PC-3 cells
Protocol: The half maximal inhibitory concentration (IC50) was determined for F-MeTz-PEG2-RM2 (8b), Ga-loaded NOTA-PEG2-RM26 (Varasteh et al. [2013b], [2015]) conjugate was used as a comparator. […] Briefly, 10^5 cells were incubated the day before. […] After incubation, the cells were collected, and their activity was measured.

[1] = target: T2, GRPR-expressing PC-3 cells (Homo sapiens, UniProt P30550); test: In vitro binding to GRPR with and without preblocking of GRPR; type: cell-based; conditions: 8–10 nM radioligand, 1 h at 37 °C, preblocking with 1 µM NOTA-PEG2-RM26 for 10 min at rt, n = 3, P < 0.0001
T2 construct: investigated using GRPR-expressing PC-3 cells; endogenous in cells; host or cells: PC-3 cells
Protocol: PC-3 cells (1 × 10^6 cells/well) were seeded on 6-well dishes one day before the experiment. On the day of the experiment, a set of wells was incubated with 1 µM/well of NOTA-PEG2-RM26 for 10 min at rt to block GRPR. After incubation, 8–10 nM (1.2–17.5 kBq) of [^18F]MeTz-PEG2-RM26 (8a) was added to the pretreated and non-treated wells, and the cells were incubated for 1 h at 37 °C. Thereafter, cells were detached using trypsin-EDTA (ethylenediaminetetraacetic acid), collected, and measured for their radioactivity content. The internalisation assay was done after 1 h of incubation as previously described (Varasteh et al. [2013b]).

[2] = Protocol: [^18F]MeTz-TCO-PEG2-RM26 (8a) (330 pmol, 1.2 MBq) was added and the tube was vortexed for 2 min. The tube was centrifuged for 20 s to separate the phases. Fractions of each phase were collected and the radioactivity content was measured.
in vivo = conditions: mouse, total radioactivity; for tissue uptake at 1 h / tissue uptake at 2 h / tissue to tissue ratio at 1 h / tissue to tissue ratio at 2 h: Balb/c nu/nu, 48 pmol; for tissue uptake dose at 0.5 h / tissue uptake at 0.5 h: NMRI; for tissue uptake at 0.5 h: NMRI mice, 30 min pi
Protocol: (§1) [^18F]MeTz-PEG2-RM26 (8a) (30 kBq, 40 pmol) was evaluated in NMRI mice to assess the biodistribution in normal organs. A group of NMRI mice (n = 3) was additionally co-injected with 5 nmol of NOTA-PEG2-RM26 to block GRPR. Mice were euthanised at 30 min post-injection (pi) and the organs of interest were collected, weighed, and measured for their radioactivity content. Further, Balb/c nu/nu mice (4 mice in each group) were used to evaluate the uptake in normal organs and the GRPR-expressing tumour model (PC-3). In short, 7 × 10^6 freshly harvested PC-3 cells were suspended in 100 µl sterile PBS and were implanted subcutaneously at the right hind leg of each mouse. […] [^18F]MeTz-PEG2-RM26 (8a) (120 kBq, 48 pmol) was injected and mice were euthanised at predetermined time points of 1 and 2 h pi. An additional group was co-injected with 5 nmol of NOTA-PEG2-RM26 to block GRPR and was euthanized at 2 h pi. The collected organs were weighed and the radioactivity content was measured in each organ.

[3] = test system: GRPR-expressing PC-3 xenografts; test: in vivo; conditions: PC-3 xenografted Balb/c nu/nu mice, 2 h pi, blocked: co-injected with 5 nmol NOTA-PEG2-RM26, mean ± SD, n = 4
Protocol: as §1

NMRI mice = test: in vivo
Protocol: as §1

[4] = NMRI mice, 30 min pi, 40 pmol (30 kBq), non-blocked, mean ± SD, n = 3–4

T2 sequence (P30550 whole entry): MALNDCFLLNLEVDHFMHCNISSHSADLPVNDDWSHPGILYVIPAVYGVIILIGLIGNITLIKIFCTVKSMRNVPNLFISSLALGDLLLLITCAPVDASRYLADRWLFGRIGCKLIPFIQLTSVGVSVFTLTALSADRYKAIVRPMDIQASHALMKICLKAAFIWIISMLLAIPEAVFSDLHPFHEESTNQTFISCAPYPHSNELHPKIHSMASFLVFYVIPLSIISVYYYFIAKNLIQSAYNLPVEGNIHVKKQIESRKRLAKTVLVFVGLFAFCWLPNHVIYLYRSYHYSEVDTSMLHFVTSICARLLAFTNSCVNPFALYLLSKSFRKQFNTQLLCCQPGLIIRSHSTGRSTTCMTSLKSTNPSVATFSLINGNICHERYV
T1 sequence (P30550 whole entry): as above

## CC1=NNC(c2ccc(CNC(=O)c3ccc(F)nc3)cc2)=C2CCC[C@H](OC(=O)NCCOCCOCCC(=O)N[C@H](Cc3ccccc3)C(=O)N[C@@H](CCC(N)=O)C(=O)N[C@@H](Cc3c[nH]c4ccccc34)C(=O)N[C@@H](C)C(=O)N[C@H](C(=O)NCC(=O)N[C@@H](Cc3c[nH]cn3)C(=O)N[C@@H](CC(C)C)[C@@H](O)CC(=O)N[C@@H](CC(C)C)C(N)=O)C(C)C)CCC12 (stereo partly drawn) [8b]
GRPR
  decrease in binding affinity versus Ga-NOTA-PEG2-RM26 (IC50 ratio): 6.8 fold

## CC1=NNC(c2ccc(CNC(=O)c3ccc(F)nc3)cc2)=C2CCC[C@H](OC(=O)NCCOCCOCCC(=O)N[C@H](Cc3ccccc3)C(=O)N[C@@H](CCC(N)=O)C(=O)N[C@@H](Cc3c[nH]c4ccccc34)C(=O)N[C@@H](C)C(=O)N[C@H](C(=O)NCC(=O)N[C@@H](Cc3c[nH]cn3)C(=O)N[C@@H](CC(C)C)[C@@H](O)CC(=O)N[C@@H](CC(C)C)C(N)=O)C(C)C)CCC12 (stereo partly drawn) [8a]
[1]
  activity uptake upon target saturation (GRPR specificity): statistically significant reduction of activity uptake upon target saturation
[2]
  logP: 1.6 ± 0.2
In vivo; blood
  tissue uptake at 1 h: 2.5 ± 0.4 %ID/g
  tissue uptake at 2 h: 1.8 ± 0.6 %ID/g
In vivo; bone
  tissue uptake at 1 h: 0.8 ± 0.2 %ID/g
  tissue uptake at 2 h: 0.6 ± 0.04 %ID/g
In vivo; kidneys
  tissue uptake at 1 h: 2.4 ± 0.1 %ID/g
  tissue uptake at 2 h: 1.9 ± 0.7 %ID/g
In vivo; liver
  tissue uptake at 1 h: 12 ± 2 %ID/g
  tissue uptake at 2 h: 7 ± 2 %ID/g
In vivo; lungs
  tissue uptake at 1 h: 1.3 ± 0.1 %ID/g
  tissue uptake at 2 h: 1.5 ± 0.8 %ID/g
In vivo; muscle
  tissue uptake at 1 h: 0.33 ± 0.04 %ID/g
  tissue uptake at 2 h: 0.3 ± 0.1 %ID/g
In vivo; pancreas
  tissue uptake at 1 h: 16 ± 1 %ID/g
  tissue uptake at 2 h: 17 ± 4 %ID/g
In vivo; small intestine
  tissue uptake at 1 h: 6 ± 3 %ID/g
  tissue uptake at 2 h: 4 ± 3 %ID/g
In vivo; spleen
  tissue uptake at 1 h: 0.9 ± 0.2 %ID/g
  tissue uptake at 2 h: 0.8 ± 0.6 %ID/g
In vivo; tumour (PC-3 xenograft)
  tissue uptake at 1 h: 2.4 ± 0.1 %ID/g
  tissue uptake at 2 h: 2.7 ± 0.5 %ID/g
In vivo; tumour / blood
  tissue to tissue ratio at 1 h: 0.97 ± 0.1
  tissue to tissue ratio at 2 h: 1.5 ± 0.2
In vivo; tumour / bone
  tissue to tissue ratio at 1 h: 3.2 ± 0.5
  tissue to tissue ratio at 2 h: 5 ± 1
In vivo; tumour / kidneys
  tissue to tissue ratio at 1 h: 0.99 ± 0.08
  tissue to tissue ratio at 2 h: 1.6 ± 0.6
In vivo; tumour / liver
  tissue to tissue ratio at 1 h: 0.2 ± 0.02
  tissue to tissue ratio at 2 h: 0.4 ± 0.1
In vivo; tumour / lungs
  tissue to tissue ratio at 1 h: 1.9 ± 0.1
  tissue to tissue ratio at 2 h: 2.2 ± 1
In vivo; tumour / muscle
  tissue to tissue ratio at 1 h: 7.4 ± 0.7
  tissue to tissue ratio at 2 h: 12 ± 4
In vivo; tumour / pancreas
  tissue to tissue ratio at 1 h: 0.15 ± 0.02
  tissue to tissue ratio at 2 h: 0.17 ± 0.05
In vivo; tumour / small intestine
  tissue to tissue ratio at 1 h: 0.5 ± 0.2
  tissue to tissue ratio at 2 h: 0.7 ± 0.3
In vivo; tumour / spleen
  tissue to tissue ratio at 1 h: 2.6 ± 0.5
  tissue to tissue ratio at 2 h: 4 ± 2
In vivo; tumour
  tissue uptake at 1 h: 2.4 ± 0.1 %ID/g
In vivo; GI tract with content (whole intestine), 40 pmol
  tissue uptake dose at 0.5 h: 38 ± 4 %ID
In vivo; GI tract with content
  tissue uptake dose at 0.5 h: 32 ± 4 %ID
In vivo; blood, 40 pmol, activity uptake in blood, 40 pmol (30 kBq), non-blocked, mean ± SD, n = 3–4
  tissue uptake at 0.5 h: 5 ± 1 %ID/g
In vivo; blood, activity uptake in blood, 40 pmol, blocked: co-injected with 5 nmol NOTA-PEG2-RM26, mean ± SD, n = 3
  tissue uptake at 0.5 h: 4 ± 1 %ID/g
In vivo; bone, 40 pmol, activity uptake in bone, 40 pmol (30 kBq), non-blocked, mean ± SD, n = 3–4
  tissue uptake at 0.5 h: 0.8 ± 0.1 %ID/g
In vivo; bone, activity uptake in bone, 40 pmol, blocked: co-injected with 5 nmol NOTA-PEG2-RM26, mean ± SD, n = 3
  tissue uptake at 0.5 h: 0.7 ± 0.1 %ID/g
In vivo; kidneys, activity uptake in kidneys, 40 pmol, blocked: co-injected with 5 nmol NOTA-PEG2-RM26, mean ± SD, n = 3
  tissue uptake at 0.5 h: 3.1 ± 0.6 %ID/g
In vivo; liver, 40 pmol, activity uptake in liver, 40 pmol (30 kBq), non-blocked, mean ± SD, n = 3–4
  tissue uptake at 0.5 h: 12 ± 0.7 %ID/g
In vivo; liver, activity uptake in liver, 40 pmol, blocked: co-injected with 5 nmol NOTA-PEG2-RM26, mean ± SD, n = 3
  tissue uptake at 0.5 h: 12 ± 2 %ID/g
In vivo; rest of the carcass, 40 pmol
  tissue uptake dose at 0.5 h: 15 ± 2 %ID
In vivo; rest of the carcass
  tissue uptake dose at 0.5 h: 16 ± 4 %ID
In vivo; spleen, 40 pmol, activity uptake in spleen, 40 pmol (30 kBq), non-blocked, mean ± SD, n = 3–4
  tissue uptake at 0.5 h: 1.4 ± 0.1 %ID/g
In vivo; spleen, activity uptake in spleen, 40 pmol, blocked: co-injected with 5 nmol NOTA-PEG2-RM26, mean ± SD, n = 3
  tissue uptake at 0.5 h: 0.9 ± 0.2 %ID/g
In vivo; whole body, 40 pmol
  tissue uptake dose at 0.5 h: 84 ± 7 %ID
[3]
  activity uptake in pancreas: 4 ± 1 %IA/g
NMRI mice; [4]
  activity uptake in bone: 0.8 ± 0.1 %IA/g
  activity uptake in liver: 12.0 ± 0.7 %IA/g
NMRI mice; judged from bone uptake in the biological evaluation in mice
  in vivo defluorination (stability of the fluorine-carbon bond): no significant signs of in vivo defluorination

Source: article PMC11947346, “Synthesis and preclinical evaluation of gastrin releasing peptide receptor antagonist [^18F]MeTz-PEG2-RM26 for positron emission tomography” (EJNMMI Radiopharmacy and Chemistry, 2025)
